Columns and labels:
Type in all cases: in vivo
corn (Zea mays) [1] = experiment: Test C postemergence, plant response rating; conditions: Zea mays, post-emergence
Description: (§1) Seeds of plant species selected from blackgrass (Alopecurus myosuroides), ryegrass, Italian (Italian ryegrass, Lolium multiflorum), wheat (winter wheat, Triticum aestivum), galium (catchweed bedstraw, Galium aparine), corn (Zea mays), crabgrass, large (large crabgrass, Digitaria sanguinalis), foxtail, giant (giant foxtail, Setaria faberii), johnsongrass (Sorghum halepense), lambsquarters (Chenopodium album), morningglory (Ipomoea coccinea), nutsedge, yellow (yellow nutsedge, Cyperus esculentus), pigweed (Amaranthus retroflexus), ragweed (common ragweed, Ambrosia elatior), soybean (Glycine max), barnyardgrass (Echinochloa crus-galli), oilseed rape (Brassica napus), pigweed, palmer (palmer pigweed, Amaranthus palmeri), waterhemp (common waterhemp, Amaranthus rudis), velvetleaf (Abutilon theophrasti), kochia (Kochia scoparia), surinam grass (Brachiaria decumbens), nightshade (eastern black nightshade, Solanum ptycanthum), wild poinsettia (Euphorbia heterophylla), windgrass (Apera spica-venti), and oat, wild (wild oat Avena fatua), were planted into a blend of loam soil and sand or a silt loam soil and treated preemergence with test chemicals formulated in a non-phytotoxic solvent mixture which included a surfactant.
(§2) At the same time, plants selected from these crop and weed species and also chickweed (common chickweed, Stellaria media), buckwheat, wild (wild buckwheat, Polygonum convolvulus), wild mustard (Sinapis arvensis), field poppy (Papaver rhoeas), field violet (Viola arvensis), geranium, cutleaf (cutleaf geranium, Geranium dissectum), Canada thistle (Cirsium arvense), and speedwell (bird's-eye speedwell, Veronica persica), were planted in pots containing Sunshine Redi-Earth® planting medium comprising spaghnum peat moss, vermiculite, starter nutrients and dolomitic limestone and treated with postemergence applications of test chemicals formulated in the same manner. Plants ranged in height from 2 to 18 cm (1- to 4-leaf stage) for postemergence treatments. Treated plants and controls were maintained in a greenhouse for 13 to 15 d, after which time all species were compared to controls and visually evaluated. Plant response ratings, summarized in Table C, are based on a scale of 0 to 100 where 0 is no effect and 100 is complete control. A dash (-) response means no test result.

soybean (Glycine max) [2] = experiment: Test C postemergence, plant response rating; conditions: Glycine max, post-emergence
Description: as §1, §2

[3] = test system: galium (catchweed bedstraw, Galium aparine); experiment: Test C postemergence, plant response rating; conditions: Galium, post-emergence
Description: as §1, §2

[4] = test system: foxtail, giant (giant foxtail, Setaria faberii); experiment: Test C postemergence, plant response rating; conditions: Setaria faberi, post-emergence
Description: as §1, §2

[5] = test system: oilseed rape (Brassica napus); experiment: Test C postemergence, plant response rating; conditions: Brassica napus, post-emergence
Description: as §1, §2

kochia (Kochia scoparia) = experiment: Test C postemergence, plant response rating; conditions: Bassia scoparia, post-emergence
Description: as §1, §2

[6] = test system: crabgrass, large (large crabgrass, Digitaria sanguinalis); experiment: Test C postemergence, plant response rating; conditions: Digitaria sanguinalis, post-emergence
Description: as §1, §2

[7] = test system: wheat (winter wheat, Triticum aestivum); experiment: Test C preemergence, plant response rating; conditions: scale 0 to 100; for Wheat plant response rating: preemergence
In short: (§3)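 Pre-emergence: seeds sown in loam soil–sand blend or silt loam and sprayed with test chemicals in a non-phytotoxic solvent mixture with surfactant. Post-emergence: plants 2 to 18 cm (1- to 4-leaf stage) in peat-based potting medium, same formulation. Greenhouse 13 to 15 d; visual rating 0 (no effect) to 100 (complete control) versus controls.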

[8] = test system: morningglory (Ipomoea coccinea); experiment: Test C preemergence, plant response rating; conditions: scale 0 to 100; for Morningglory plant response rating: preemergence
In short: as §3

[9] = test system: waterhemp (common waterhemp, Amaranthus rudis); experiment: Test C preemergence, plant response rating; conditions: scale 0 to 100; for Waterhemp plant response rating: preemergence
In short: as §3

corn (Zea mays) [10] = experiment: Test C preemergence, plant response rating; conditions: scale 0 to 100; for Corn plant response rating: preemergence
In short: as §3

soybean (Glycine max) [11] = experiment: Test C preemergence, plant response rating; conditions: scale 0 to 100; for Soybean plant response rating: preemergence
In short: as §3

[12] = test system: lambsquarters (Chenopodium album); experiment: Test C preemergence, plant response rating; conditions: scale 0 to 100; for Lambsquarters plant response rating: preemergence
In short: as §3

[13] = test system: blackgrass (Alopecurus myosuroides); experiment: Test C preemergence, plant response rating; conditions: scale 0 to 100; for Blackgrass plant response rating: preemergence
In short: as §3

[14] = test system: velvetleaf (Abutilon theophrasti); experiment: Test C preemergence, plant response rating; conditions: scale 0 to 100; for Velvetleaf plant response rating: preemergence
In short: as §3

[15] = test system: foxtail, giant (giant foxtail, Setaria faberii); experiment: Test C preemergence, plant response rating; conditions: scale 0 to 100; for Foxtail, Giant plant response rating: preemergence
In short: as §3

[16] = test system: nutsedge, yellow (yellow nutsedge, Cyperus esculentus); experiment: Test C preemergence, plant response rating; conditions: scale 0 to 100; for Nutsedge, Yellow plant response rating: preemergence
In short: as §3

[17] = test system: ryegrass, Italian (Italian ryegrass, Lolium multiflorum); experiment: Test C preemergence, plant response rating; conditions: scale 0 to 100; for Ryegrass, Italian plant response rating: preemergence
In short: as §3

[18] = test system: oilseed rape (Brassica napus); experiment: Test C preemergence, plant response rating; conditions: scale 0 to 100; for Oilseed Rape plant response rating: preemergence
In short: as §3

[19] = test system: crabgrass, large (large crabgrass, Digitaria sanguinalis); experiment: Test C preemergence, plant response rating; conditions: scale 0 to 100; for Crabgrass, Large plant response rating: preemergence
In short: as §3

CCCOC(=O)c1c(Br)cccc1Oc1ncc(Cl)cn1 [Compound 13, propyl 2-bromo-6-[(5-chloro-2-pyrimidinyl)oxy]benzoate]
0: Wheat plant response rating ([7]; 4 g ai/ha) | Wheat plant response rating ([7]; 8 g ai/ha) | Morningglory plant response rating ([8]; 4 g ai/ha) | Morningglory plant response rating ([8]; 8 g ai/ha) | Corn plant response rating (corn (Zea mays) [10]; 4 g ai/ha) | Corn plant response rating (corn (Zea mays) [10]; 8 g ai/ha) | Soybean plant response rating (soybean (Glycine max) [11]; 4 g ai/ha) | Soybean plant response rating (soybean (Glycine max) [11]; 8 g ai/ha) | Lambsquarters plant response rating ([12]; 4 g ai/ha) | Blackgrass plant response rating ([13]; 4 g ai/ha) | Blackgrass plant response rating ([13]; 8 g ai/ha) | Foxtail, Giant plant response rating ([15]; 4 g ai/ha) | Foxtail, Giant plant response rating ([15]; 8 g ai/ha) | Nutsedge, Yellow plant response rating ([16]; 4 g ai/ha) | Nutsedge, Yellow plant response rating ([16]; 8 g ai/ha) | Ryegrass, Italian plant response rating ([17]; 4 g ai/ha) | Ryegrass, Italian plant response rating ([17]; 8 g ai/ha) | Oilseed Rape plant response rating ([18]; 4 g ai/ha) | Oilseed Rape plant response rating ([18]; 8 g ai/ha)
15%: plant injury at 4 g/ha (soybean (Glycine max) [2]; 4 g ai/ha, scale of 0 to 100) | pest or weed control at 31 g/ha ([6]; 31 g ai/ha, scale 0 to 100) | pest or weed control at 31 g/ha ([12]; Chenopodium album, pre-emergence, Preemergence, 31 g ai/ha)
50%: pest or weed control at 31 g/ha ([3]; 31 g ai/ha, scale 0 to 100) | pest or weed control at 16 g/ha ([12]; Chenopodium album, pre-emergence, Preemergence, 16 g ai/ha) | plant injury at 31 g/ha ([18]; Brassica napus, pre-emergence, Preemergence, 31 g ai/ha)
100%: pest or weed control at 31 g/ha ([9]; Amaranthus tuberculatus, pre-emergence, Preemergence, 31 g ai/ha)
35%: plant injury at 31 g/ha (soybean (Glycine max) [2]; 31 g ai/ha, scale 0 to 100) | plant injury at 31 g/ha ([5]; 31 g ai/ha, scale 0 to 100)
30%: plant injury at 16 g/ha (soybean (Glycine max) [2]; 16 g ai/ha, scale 0 to 100) | pest or weed control at 16 g/ha (kochia (Kochia scoparia); 16 g ai/ha, scale 0 to 100) | pest or weed control at 31 g/ha (kochia (Kochia scoparia); 31 g ai/ha, scale 0 to 100)
10: Waterhemp plant response rating ([9]; 8 g ai/ha) | Velvetleaf plant response rating ([14]; 8 g ai/ha)
5: Waterhemp plant response rating ([9]; 4 g ai/ha) | Lambsquarters plant response rating ([12]; 8 g ai/ha) | Velvetleaf plant response rating ([14]; 4 g ai/ha)
0%: plant injury at 4 g/ha ([5]; 4 g ai/ha, scale of 0 to 100) | plant injury at 8 g/ha ([5]; 8 g ai/ha, scale of 0 to 100) | plant injury at 16 g/ha ([5]; 16 g ai/ha, scale 0 to 100) | pest or weed control at 4 g/ha (kochia (Kochia scoparia); 4 g ai/ha, scale of 0 to 100) | plant injury at 16 g/ha ([7]; Triticum aestivum, pre-emergence, Preemergence, 16 g ai/ha) | pest or weed control at 16 g/ha ([13]; Alopecurus myosuroides, pre-emergence, Preemergence, 16 g ai/ha) | pest or weed control at 31 g/ha ([13]; Alopecurus myosuroides, pre-emergence, Preemergence, 31 g ai/ha) | pest or weed control at 16 g/ha ([15]; Setaria faberi, pre-emergence, Preemergence, 16 g ai/ha) | pest or weed control at 16 g/ha ([16]; Cyperus, pre-emergence, Preemergence, 16 g ai/ha) | pest or weed control at 16 g/ha ([17]; Lolium multiflorum, pre-emergence, Preemergence, 16 g ai/ha) | pest or weed control at 31 g/ha ([17]; Lolium multiflorum, pre-emergence, Preemergence, 31 g ai/ha) | plant injury at 16 g/ha ([18]; Brassica napus, pre-emergence, Preemergence, 16 g ai/ha)
10%: Corn plant response rating (crop injury, 0 = no effect, 100 = complete kill) at 16 g/ha (corn (Zea mays) [1]; 16 g ai/ha, scale 0 to 100) | pest or weed control at 4 g/ha ([3]; 4 g ai/ha, scale of 0 to 100) | pest or weed control at 16 g/ha ([4]; 16 g ai/ha, scale 0 to 100) | Corn plant response rating (crop injury, 0 = no effect, 100 = complete kill) at 31 g/ha (corn (Zea mays) [10]; Zea mays, pre-emergence, Preemergence, 31 g ai/ha)
65%: pest or weed control at 16 g/ha ([3]; 16 g ai/ha, scale 0 to 100)
25%: pest or weed control at 31 g/ha ([4]; 31 g ai/ha, scale 0 to 100)
80%: pest or weed control at 16 g/ha ([9]; Amaranthus tuberculatus, pre-emergence, Preemergence, 16 g ai/ha)
25: Crabgrass, Large plant response rating ([19]; 4 g ai/ha)
30: Crabgrass, Large plant response rating ([19]; 8 g ai/ha)
5%: Corn plant response rating (crop injury, 0 = no effect, 100 = complete kill) at 4 g/ha (corn (Zea mays) [1]; 4 g ai/ha, scale of 0 to 100) | Corn plant response rating (crop injury, 0 = no effect, 100 = complete kill) at 8 g/ha (corn (Zea mays) [1]; 8 g ai/ha, scale of 0 to 100) | Corn plant response rating (crop injury, 0 = no effect, 100 = complete kill) at 31 g/ha (corn (Zea mays) [1]; 31 g ai/ha, scale 0 to 100) | pest or weed control at 8 g/ha ([3]; 8 g ai/ha, scale of 0 to 100) | pest or weed control at 4 g/ha ([4]; 4 g ai/ha, scale of 0 to 100) | pest or weed control at 8 g/ha ([4]; 8 g ai/ha, scale of 0 to 100) | pest or weed control at 8 g/ha (kochia (Kochia scoparia); 8 g ai/ha, scale of 0 to 100) | pest or weed control at 4 g/ha ([6]; 4 g ai/ha, scale of 0 to 100) | pest or weed control at 8 g/ha ([6]; 8 g ai/ha, scale of 0 to 100) | pest or weed control at 16 g/ha ([6]; 16 g ai/ha, scale 0 to 100) | plant injury at 31 g/ha ([7]; Triticum aestivum, pre-emergence, Preemergence, 31 g ai/ha) | pest or weed control at 16 g/ha ([8]; Ipomoea, pre-emergence, Preemergence, 16 g ai/ha) | pest or weed control at 31 g/ha ([8]; Ipomoea, pre-emergence, Preemergence, 31 g ai/ha) | Corn plant response rating (crop injury, 0 = no effect, 100 = complete kill) at 16 g/ha (corn (Zea mays) [10]; Zea mays, pre-emergence, Preemergence, 16 g ai/ha) | plant injury at 16 g/ha (soybean (Glycine max) [11]; Glycine max, pre-emergence, Preemergence, 16 g ai/ha) | plant injury at 31 g/ha (soybean (Glycine max) [11]; Glycine max, pre-emergence, Preemergence, 31 g ai/ha) | pest or weed control at 31 g/ha ([16]; Cyperus, pre-emergence, Preemergence, 31 g ai/ha)
60%: pest or weed control at 16 g/ha ([19]; Digitaria sanguinalis, pre-emergence, Preemergence, 16 g ai/ha)
70%: pest or weed control at 31 g/ha ([14]; Abutilon theophrasti, pre-emergence, Preemergence, 31 g ai/ha)
20%: plant injury at 8 g/ha (soybean (Glycine max) [2]; 8 g ai/ha, scale of 0 to 100) | pest or weed control at 16 g/ha ([14]; Abutilon theophrasti, pre-emergence, Preemergence, 16 g ai/ha)
95%: pest or weed control at 31 g/ha ([15]; Setaria faberi, pre-emergence, Preemergence, 31 g ai/ha)
85%: pest or weed control at 31 g/ha ([19]; Digitaria sanguinalis, pre-emergence, Preemergence, 31 g ai/ha)
